Measurements published in US5358936A, “Anionic furanose derivatives, methods of making and using the same” (Gordon; Paul, priority 1991, dated 1994).
Where “and” joins values, the source holds several entries; their conditions need not be identical. Equal values may be shown once. Where a name gives a salt, the structure may show the parent alone.

Experiments:
[1] = test system: mouse blood coagulation; assay: Blood coagulation, in vitro clotting time (Example 31 A); conditions: 10 μg/ml in normal saline
Experimental: To assess the effect on coagulation, if any, of a compound of the invention, a comparative evaluation was made using mouse blood.
One ml of freshly drawn mouse blood was added to each tube, and the tube contents were mixed. The clotting time was then noted for each tube, and the results are as shown below:

[2] = Chronic toxicity in C57 Black mice by drinking water (Example 29 B); assay type: in vivo; conditions: 28 days, average daily dose 175 mg/kg
Experimental: However, eight mice were treated with Compound III by drinking water, for a period of 28 days. During this time, the average daily dose consumed was 175 mg/kg.

[3] = Dissolution and buffering of suspensions, HCl titration (Example 16); conditions: HCl titration
[4] = test system: rat paw; assay: Post-ischemic reperfusion paw swelling (Example 22); assay type: in vivo, Sprague Dawley male rats; conditions: for % Change as a result of treatment / Paw swelling, Mean ± SE: another study; for Paw swelling, Mean ± SE: i.p. 45 minutes prior; for Post-ischemic reperfusion 30 minute paw swelling, Mn ± SE: P < 0.02
From the text: This important disease model is used to evaluate aspects of tissue injury that occur in heart attack, or myocardial infarction, and stroke. Under these conditions, a significant period of injury can occur after blood flow has been restored, during the period of reperfusion.
To produce ischemia, blood flow to the left hind foot was largely interrupted by application of a tourniquet made up of two size 18 rubber bands wound eight times around the leg just behind the heel. […] Both application and removal of tourniquet were carried out under ether anesthesia. Injury was equated with organ swelling, which was assayed by measurement of the dorsoventral foot diameter with a Schnelltaster caliper, just before application of the tourniquet and at various times following tourniquet removal, during the reperfusion period.
Rats employed were Sprague Dawley males, weighing 240-280 grams. Drug comparisons were made here employing measurements 30 minutes into the reperfusion period. The widely studied drug allopurinol, a xanthine oxidase inhibitor and a free radical scavenging agent, used in the treatment of gout, and widely used to suppress experimental post-ischemic reperfusion injury was used as an experimental treatment standard. In studies below, allopurinol and all new drugs were given intraperitoneally 45-60 minutes prior to application of the tourniquet. Data are reported as the mean swelling (Mn)±standard error (SE). […] Group n is 5 or 6.
In another study, drug comparisons were made at various times after the reperfusion period. In this study, control and drug treatment groups were as above.

[5] = test system: rat stomachs; assay: Gastric pathology following inflammatory stress and indomethacin, food-deprived rats (Example 21); assay type: in vivo
Experimental: Stress was induced by the following procedure. On day one, under ether anesthesia, 18 male Sprague Dawley rats were injected with a suspension of Zymosan A (1 mg/ml in normal saline; Sigma Chemical Co.) in each hind paw. Swelling developed and persisted. This treatment generated activated blood complement locally (including the C5a moiety), which then spread by the bloodstream throughout the animal.
Twenty-four hours later all rat paws were reinjected, this time with 0.1 ml of proinflammatory zymosan-activated rat serum containing additional amounts of inflammatory complement fragment C5a (as in Example 23, hereinafter). Five hours later 30 mg/kg indomethacin in an aqueous suspension was given to nine such rats by oral garage. These rats also received a subcutaneous injection of 0.1 ml normal saline. Nine other such rats were given indomethacin as above, and Compound III (50 mg/kg in normal saline subcutaneously). Four additional rats, not stressed (normal) were given water by garage as a placebo and saline subcutaneously. All rats were fed ad libitum on standard diet.
In contrast to the study of Example 20, above, in this study animals were food deprived for 24 hours before and also during the 24 hours following drug treatments. All animals were subjected to the inflammatory stress as described in Example 20. Eight such rats received 30 mg/kg indomethacin, and eight rats received indomethacin and Compound III (subcut., 50 mg/kg). Four rats, not stressed, were given placebo by garage.
All animals were sacrificed by ether euthanasia 24 hours later, and their stomachs evaluated for ulcer-related pathology.
In the stressed animals given indomethacin alone, pathology was much more severe than in Example 20. For scoring, therefore, the frequency of ulcers per rat stomach was quantified, and whether they were or were not bleeding.

[6] = test system: bacterial lipopolysaccharide toxicity; assay: Early shock symptoms (diarrhea, malaise) after bacterial endotoxin in older rabbits (Example 28 B); assay type: in vivo, rabbit; conditions: 10 mg/kg IV; by 48 hours; all eight controls affected; P<0.01
Experimental: B. Employing the same batch of endotoxin, the same induction methodology was applied to an older, seven month old group of rabbits. […] In this study the treatment group received 10 mg/kg of Compound III, given IV, as above.

[7] = test system: lung gross pathology; assay: Generalized Schwartzmann Reaction (Example 28 A); assay type: in vivo, rabbit; conditions: P < 0.01
Experimental: The Generalized Schwartzmann Reaction (GSR) is a pathology in which two intravenous injections of non-lethal amounts of bacterial endotoxin, when separated by 8 to 36 hours, promote thrombotic and tissue-destructive processes in the lung, producing disseminated pulmonary thrombosis and necrosis in otherwise untreated rabbits.
A. In this study, eight six-week old salmonella-free male rabbits each weighing about 1.5 kg were injected IV with saline vehicle and eight similar rabbits were injected IV with 50 mg/kg of Compound III in the same vehicle. One hour later, all of the animals were injected IV with 100 μg of E. coli lipopolysaccharide (LPS; Sigma Chemical Co.) on day one and with the same amount of LPS on day two, twenty hours later. Animals were evaluated for clinical signs at 24 and 48 hours, and were sacrificed for organ evaluation 48 hours after the second endotoxin injection.
In assessing gross pathology, separate scores were developed in four categories and these were then summed and added, in one instance, to a score for clinical signs.
Gross Pathology Categories
(1) Surface redness, diffuse or mottled (reflecting hyperemia, hemostasis).+2 to +4.
(2) Discrete focal surface lesions (reflecting thrombosis without disruption of gross pulmonary architecture).

[8] = test system: gastric submucosal thrombi; assay: Inhibition of gastric submucosal thrombi (Example 30); assay type: in vivo, rat; conditions: 10 mg/kg IV
Experimental: Thrombosis was induced in rat stomach submucosal blood vessels by the following two-step treatment. First, 1.5 ml of 100 percent ethanol was administered by oral gavage. This produces non-specific injury to tissues and blood vessels of the gastric mucosa. Second, 1.0 mg of adenosine diphosphate (ADP) in 1.0 ml of H2 O, was administered by oral garage 15 minutes after the administration of ethanol. Administration of ADP biases the organ response towards thrombosis by inducing platelet aggregation.
The pathology generated is typically a disseminated pattern of multiple small thrombi, observed on examination of the gastric mucosa, 1-3 hours after ethanol administration. These thrombi are dark red, dilated, thrombosed submucosal blood vessel segments, each being approximately 1 mm thick and 2 to 6 mm long.
In these studies, animals were treated with drug or centrol at one hour prior to ethanol administration. Thrombosis was induced as discussed before, and animals were sacrificed at 1.5 hours after ethanol administration. Focal thrombi were then counted. In this study, n=9-10.

CC1(C)O[C@H]2O[C@H]([C@@H](COS(=O)(=O)O)OS(=O)(=O)O)[C@H](OS(=O)(=O)O)[C@H]2O1 [Compound III, 1,2-O-(2-Propylidene)-3,5,6-tri-O-sulfo-α-D-glucofuranose, tripotassium salt]
Clotting time, individual mouse ([1]; control 2.0-6.0, tripotassium salt): 2.0 min and 1.0 min and 4.0 min | Average clotting time ([1]; control 4.33 ± 1.20, P<0.001): 2.0 ± 0.71 min | body weight and appearance at termination versus controls [2]: weighed as much as the controls, and looked sleeker | buffering action, in words [3]: no buffering power | % Change as a result of treatment ([4]; reperfusion time 20 mins., i.p.): -46% | Paw swelling, Mean ± SE ([4]; reperfusion time 20 mins., control 8.20 ± 1.02): 4.60 ± 0.40 0.1 mm | % Change as a result of treatment ([4]; reperfusion time 30 mins., i.p.): -36% | Paw swelling, Mean ± SE ([4]; reperfusion time 30 mins., control 6.60 ± 0.87): 4.20 ± 0.37 0.1 mm | inhibition of ischemic rat paw edema ([4]; oral treatment route, after 20 minutes): 44% | Swelling change as a result of treatment ([4]; study A, 30 minutes reperfusion, 0.2 mg/kg i.p.): -53% | Post-ischemic reperfusion 30 minute paw swelling, Mn ± SE ([4]; study A, Compound III 0.2 mg/kg i.p. 45-60 minutes before tourniquet, control 12.7 ± 0.98): 6.0 ± 0.32 0.1 mm | Swelling change as a result of treatment ([4]; study B, 30 minutes, i.p., Compound III 0.2 mg/kg, allopurinol 20 mg/kg): -40% | Post-ischemic reperfusion 30 minute paw swelling, Mn ± SE ([4]; study B, i.p., Compound III 0.2 mg/kg, allopurinol 20 mg/kg, control 20.5 ± 0.76): 12.2 ± 0.70 0.1 mm | Post-ischemic reperfusion 30 minute paw swelling, Mn ± SE ([4]; study C, 0.2 mg/kg i.p., control 18.4 ± 0.54): 10.2 ± 0.28 0.1 mm | Swelling change as a result of treatment ([4]; study C, 30 minutes, 0.2 mg/kg i.p.): -45% | bleeding ulcers in group ([5]; eight rats): None were bleeding | Bleeding Ulcer Frequency, Mn ± SE ([5]; indomethacin 30 mg/kg, Compound III 50 mg/kg subcut. where given, 24 hours, P<0.001 vs indomethacin alone): 0.00 Per Rat | Total Ulcer Frequency, n ± SE ([5]; indomethacin 30 mg/kg, Compound III 50 mg/kg subcut. where given, 24 hours, P<0.01 vs indomethacin alone): 0.63 ± 0.42 Per Rat | ulcers per affected rat ([5]; indomethacin: all eight rats, indomethacin + Compound III: only two rats): two and three | rabbits exhibiting symptoms of early shock (diarrhea, malaise) [6]: only one of eight | Mean Pathology score ([7]; 50 mg/kg IV one hour before LPS, untreated 8.00 ± 1.02): 2.25 ± 1.10 | Drug Effect on mean pathology score ([7]; 50 mg/kg IV): -72% | Drug Effect on thrombi [8]: -62.3% | Mean Thrombi per Stomach, ±SE ([8]; ethanol + ADP, control 10.60 ± 1.42): 4.00 ± 1.12 per Stomach
